Source: patent US20260169011A1, “METHODS AND COMPOSITIONS FOR PROVIDING CUSTOMIZED NUTRITIONAL SUPPLEMENTS” (Vibrant Holdings LLC, priority 2023, published 2026)
Where two headings read alike, the source gives them in different places. Blank lines part the entries; values can stand above or below the compound they belong to.

Tests used:
[1] = Intracellular (RBC / WBC, cellular) nutrient levels by mass spectrometry; type: in vivo, human; conditions: Level: Cells, person; for Follow-up Nutrient Level: after customized blend; for Actual Nutrient Value (ANV): before customized blend
Description: (§1) In some embodiments, the detection method is mass spectrometry.

[2] = NutriPro test: serum, RBC and WBC nutrient values before and after ATB / customized blend; type: in vivo, human; conditions: for Pre-test biomarker level: before ATB; for Follow-up Nutrient Level / Actual Nutrient Value (ANV): person three; for Actual Nutrient Value (ANV): before customized blend
Description: The method for providing a nutritional supplement for a subject as disclosed herein is based on a comprehensive panel that assesses intracellular and extracellular levels of at least or up to 41 nutrients. […] Blood analysis using the method disclosed herein tests for nutrient levels in serum, red blood cells (RBCs), and white blood cells (WBCs). Additional genetic testing can assess patients' predispositions toward nutrient deficiencies. Based on the blood and genetic analysis results, a subsequent supplementation diet comprising supplements and food sources can be designed and implemented. The subject can be a human subject.
as §1
The ‘NutriPro’ test is used to assess serum (extracellular), RBC, and WBC (intracellular) nutrient values along with genetic testing for any predispositions with could be affecting nutrient values in the body. If required, additional tests such as the gut zoomer, cardiovascular health, thyroid test, kidney function test, liver function test, etc, are carried out. FIG. 1 provides a schematic diagram of the process of the NutriPro test from the individual subject to the creation of customized nutritional blends.
The ATB is given to the individual for nutritional supplementation, and blood testing for nutrients in serum, RBC, and WBC is carried out after 3 or 6 months.
The assessed change is called the VAF.
After testing, the individual takes the ATB or the customized blend for the amount of time indicated.

[3] = Extracellular (serum) nutrient levels by mass spectrometry (LC-MS, GC-MS, ICP-MS); conditions: for Follow-up Nutrient Level / Actual Nutrient Value (ANV): Level: Serum, person; for Follow-up Nutrient Level: after customized blend; for Actual Nutrient Value (ANV): before customized blend
Description: In some embodiments, the detection method assesses nutrients both in extracellular plasma and intracellular in RBC and WBC. In some embodiments, the detection method is mass spectroscopy-based. The extracellular and intracellular nutrient levels provide a comprehensive analysis of a subject's nutrient status, reflecting not only the intake levels but also the absorption levels into the cells.
In some aspects, the extracellular nutrient levels provide a snapshot of the status of nutrient baseline levels at a given time. It is a reflection of a person's diet over a narrow period of time. In contrast, the intracellular levels of nutrients provide information on the absorbed levels of nutrients, thus accounting for factors such as aging, lifestyle, chronic illness, medication, etc. that could interfere with absorption and can change the functional nutritional levels.
In some embodiments, the detection method is mass spectrometry. In some embodiments, the detection method is Liquid chromatography-mass spectrometry (LC-MS), Gas chromatography-mass spectrometry (GC-MS), or Inductively coupled plasma-mass-spectrometry (ICP-MS). In some embodiments, the detection method is Liquid chromatography-mass spectrometry (LC-MS). In some embodiments, the detection method is Gas chromatography-mass spectrometry (GC-MS). In some embodiments, the detection method is Inductively coupled plasma-mass-spectrometry (ICP-MS).
In some embodiments, the method provided herein evaluates nutrient levels, both in extracellular serum and inside (intracellular) red blood cells (RBC) and/or white blood cells (WBC). The extracellular nutrient levels provide a snapshot of the status of nutrient baseline levels at a given time. These extracellular nutrient levels are a reflection of a person's diet over a narrow period of time. In contrast, RBCs have a normal lifespan of 120 days, and thus intracellular assessments for nutrients in RBCs can provide information on nutrients over longer periods. Additionally, the intracellular levels of nutrients provide information on the absorbed levels of nutrients, thus accounting for factors such as, but not limited to, aging, lifestyle, chronic illness, and medication, that can interfere with absorption and can change the functional nutritional levels. Moreover, actual nutrient utilization occurs inside the cell owing to cellular metabolic processes. At times, nutrients could be present in serum, but poor cellular uptake may result in cells being devoid of these nutrients, thus giving rise to nutrient deficiencies owing to affected cellular activities. […] As a result, it is important to assess nutrients intracellularly in addition to extracellularly. Thus, the intracellular assessment provides information on cellular uptake and utilization of nutrients at the most fundamental level, enabling understanding of the root cause of nutrient deficiencies.
The subject individual fills out the health questionnaire (PHQ) which helps establishes factors such as symptoms, complications, comorbidities, and ongoing medications. The subject's blood is drawn and the extracellular serum and intracellular blood cells are tested for nutritional deficiencies via mass spectroscopy (e.g., Liquid chromatography-mass spectrometry (LC-MS), Gas chromatography-mass spectrometry (GC-MS), or Inductively coupled plasma-mass-spectrometry (ICP-MS)).

[4] = Vibrant Absorption Factor (VAF): difference of post- and pre-supplementation nutrient values divided by ATB dosage
Description: Improvement in nutrition can be determined by comparing the nutrient values in serum, RBC, and WBCs post-nutritional supplementation to the nutrient values in serum, RBC, and WBCs pre-nutritional supplementation. Based on the improvement, the change in the nutrient levels can be attributed to the per milligram dosage of the supplemented nutrients. The assessed nutritional change is the “Vibrant Absorption factor (VAF (see Equation (1) below). The VAF can be used to determine the subject's utilization of the supplemented nutrients, as determined by the difference in extracellular and intracellular nutrient values before and after supplementation. Based on the subject's utility or absorption of the nutrients, the dosage amount of the nutrient needed to be supplemented or increased to effect change of the subject's nutrient values into the optimum nutrient zone can be assessed. In various embodiments, the VAF is determined by administering a pre-determined formulation, referred to herein as the Absorption Testing Blend.
Next, the ATB is administered to the individual for a predefined period at step 320a, after which nutrient levels and the genetic nutrient profile are re-evaluated, to obtain the post-supplementation biomarker values at step 330.
This includes determining the VAF based on the difference between post- and pre-supplementation biomarker values, which is divided by the ATB dosage.
The assessed change is called the VAF. The VAF is used to understand how the individual's body is utilizing these nutrients, depending on the difference in extracellular and intracellular nutrient values before and after supplementation. Based on the body's utility or absorption of the nutrients, the amount of nutrients needed to be supplemented to alter the individual's nutrient values into the optimum nutrient zone is understood. The VAF calculations help in determining the appropriate dosages of nutrients required in the ‘customized blend.’

[5] = cited from earlier work
[6] = person one, serum, after customized blend

SMILES: [Ca] [Calcium]
Follow-up Nutrient Level [1]: 4.2 ng/MM WBC
Actual Nutrient Value (ANV) [1]: 4.2 ng/MM WBC
Post-test biomarker level ([2]; person one, serum, after ATB): 7.3 mg/dL
Follow-up Biomarker level [2, 6]: 10.4 mg/dL
Pre-test biomarker level ([2]; person one, serum): 6.5 mg/dL
Post-test biomarker level ([2]; person two, serum, after ATB): 5.9 mg/dL
Follow-up Biomarker level ([2]; person two, serum, after customized blend): 10.42 mg/dL
Pre-test biomarker level ([2]; person two, serum): 5.4 mg/dL
Follow-up Nutrient Level [3]: 6.2 mg/dL
Actual Nutrient Value (ANV) [3]: 3.1 mg/dL
VAF ([4]; person one, serum): 0.8
VAF ([4]; person two, serum): 0.5
UTL ([5]; Table 18, person one): 2,500 mg/day
UTL ([5]; Table 19, person two): 2,500 mg/day
UTL ([5]; upper tolerable limit): 2,500 mg/day

SMILES: [Cu] [Copper]
Post-test biomarker level ([2]; person one, serum, after ATB): 0.09 mg/dL
Follow-up Biomarker level [2, 6]: 0.169 mg/dL
Pre-test biomarker level ([2]; person one, serum): 0.02 mg/dL
Follow-up Nutrient Level [3]: 0.05 mg/dL
Actual Nutrient Value (ANV) [3]: 0.01 mg/dL
VAF ([4]; person one, serum): 8.75
UTL ([5]; Table 18, person one): 10 mg/day

Follow-up Nutrient Level ([1]; unit not given): 0.9
Actual Nutrient Value (ANV) ([1]; unit not given): 0.9
Post-test biomarker level ([2]; person two, cells, after ATB, unit not given): 1.9
Follow-up Biomarker level ([2]; person two, cells, after customized blend, unit not given): 9.4
Pre-test biomarker level ([2]; person two, cells, unit not given): 1.2
VAF ([4]; person two, cells): 0.14
SMILES: CC/C=C\C/C=C\C/C=C\C/C=C\C/C=C\C/C=C\CCC(=O)O [DHA]

SMILES: CC/C=C\C/C=C\C/C=C\C/C=C\C/C=C\CCCC(=O)O [EPA]
Follow-up Nutrient Level ([1]; unit not given): 0.05
Actual Nutrient Value (ANV) ([1]; unit not given): 0.05
Post-test biomarker level ([2]; person one, cells, after ATB, unit not given): 0.87
Follow-up Biomarker level ([2]; person one, cells, after customized blend, unit not given): 2.1
Pre-test biomarker level ([2]; person one, cells, unit not given): 0.1
VAF ([4]; person one, cells): 0.154

Follow-up Biomarker level ([2]; female, human, in vivo): 0.00145 mg/dL
Post-test biomarker level ([2]; female, human, in vivo): 0.00033 mg/dL
Post-test biomarker level ([2]; person one, serum, after ATB): 0.00028 mg/dL
Follow-up Biomarker level [2, 6]: 0.00143 mg/dL
Pre-test biomarker level ([2]; person one, serum): 0.00012 mg/dL
Pre-test biomarker level ([2]; person two, serum): 9e-05 mg/dL
Actual Nutrient Value (ANV) [3]: 8e-05 mg/dL
concentration at 3 months ([3]; female, human, serum): 1.2 ng/mL
VAF ([4]; person one, serum): 0.032
VAF ([4]; person two, serum): 0.048
SMILES: Nc1nc2ncc(CNc3ccc(C(=O)N[C@@H](CCC(=O)O)C(=O)O)cc3)nc2c(=O)[nH]1 [Folate]

SMILES: [Fe] [Iron]
Follow-up Nutrient Level [1]: 76.5 mg/dL
Actual Nutrient Value (ANV) [1]: 76.5 mg/dL
Follow-up Nutrient Level ([2]; cells, after customized blend): 114.1 mg/dL
Actual Nutrient Value (ANV) ([2]; cells): 62 mg/dL
Follow-up Nutrient Level ([2]; serum, after customized blend): 0.141 mg/dL
Actual Nutrient Value (ANV) ([2]; serum): 0.022 mg/dL
Follow-up Nutrient Level [3]: 0.019 mg/dL
Actual Nutrient Value (ANV) [3]: 0.014 mg/dL
UTL ([5]; Table 20, person three): 45 mg/day

SMILES: N[C@@H](CO)C(=O)O [L-Serine]
Follow-up Nutrient Level [3]: 51 nmol/mL
Actual Nutrient Value (ANV) [3]: 44 nmol/mL
UTL ([5]; upper tolerable limit): 12000 mg/day
